Source: patent US20020012721A1, “Cooked cereal ingredient-containing products fortified with non-ferric edta and insoluble iron compositions and methods for use” (priority 1998, published 2002)

How the values were obtained:
[1] = Iron absorption from fortified corn flakes with milk in women, from radioactivity in circulating erythrocytes; type: in vivo; conditions: 30 g corn flakes with 150 ml milk, percent iron absorbed normalized by reference dose of ferrous ascorbate
Protocol: An experiment was conducted to validate the effectiveness of combining reduced iron with a non-ferric EDTA salt. Six sources of iron were compared in a study conducted on women.
The study was performed using a serving of corn flakes, approximately 30 g, with the addition of 150 ml lactose free UHT-treated 2% fat cow's milk. The percentage of iron absorbed by the test subjects was determined from radioactivity present in the circulating erythrocytes. Labeled ^59FeCl3 was used as a tracer in the reference dose of ferrous ascorbate and in the treatments containing FeSO4. Labeled ^55FeCl3 was used as a tracer in the treatments containing elemental reduced iron. The percentage of iron absorbed by the test subjects was normalized by the reference dose of ferrous ascorbate.

[2] = Rat hemoglobin repletion method: iron bioavailability of iron phosphate alone or with Na2EDTA versus FeSO4 in rat diet/Corn Flakes; type: in vivo, Sprague Dawley rats; conditions: rats; for Percent Absorption Relative to FeSO4: calculated from the slopes; for Slope: hemoglobin gain versus diet iron concentration, common intercept, letters mark estimates that do not differ (P < .10)
Protocol: An additional study was performed to determine the bioavailability of iron phosphate when combined with Na2EDTA. The relative iron bioavailability of the various iron containing compositions in a ready-to-eat cereal product was assayed using a widely accepted method, commonly referred to as the rat hemoglobin repletion method, (modified AOAC method for assessment of relative iron bioavailability), see Williams, S. ed. Official methods of analysis of the Association of Official Analytical Chemists, 14th ed. Arlington, Va. AOAC, 1984; Fritz, J. C. et al., Collaborative Study of rat hemoglobin repletion test for bioavailability of iron, AOAC 1974, 57:513-517. Relative bioavailability of the various iron:EDTA composition was carried out in a series of separate experiments. In each of these experiments, ferrous sulfate was used as the standard or control compound.
Sprague Dawley rats, individually housed in temperature and light controlled units, were fed an iron deficient diet obtained from Harland Tekland Laboratories for 24 days. After this iron depletion phase, the rats were weighed and blood was drawn to test for baseline hemoglobin concentrations. These anemic animals, with hemoglobin levels between […], were then randomly assigned to the control and test groups. Ferrous sulfate, iron phosphate, and iron phosphate with Na2EDTA were separately added to the test diets to achieve concentrations of 6 and 18 and 24 mg iron/kg diet. These diets were then fed to groups of ten animals, ad libitum, for 14 days. Iron levels in the diets, were verified by atomic absorption spectrometry (Blin et al., J. Assoc. Off. Anal. Chem. 1977, 60:1170-1174). After the 14-day test period, hemoglobin concentrations were determined for all animals.
The iron bioavailability of each iron source, assayed relative to ferrous sulfate, was calculated using the slope ratio procedure by comparing the gain in hemoglobin concentration with the iron concentration in the diet (Finney, D. J., Statistical methods in biological assay.2nd ed. 1964; Amine et L., Biological assessment of available iron in food products, J. Agric. Food Chem. 1974, 22:470-476). […] The percent absorption relative to FeSO4 was calculated from the slopes determined from each experiment.
An additional test was conducted feeding rats a purified rat diet/Corn Flakes® fortified with iron phosphate either alone or in combination with Na2EDTA or mixtures of both. […] As described above the bioavailability was determined by assaying the relative change in hemoglobin in rats fed with the various fortified diets with the recommended daily allowance for humans of iron content (RDA).
Three test diets were evaluated: […]

Compound | Normalized Absorption ([1]; 25% Daily Value iron) [%] | Percent Absorption Relative to FeSO4 [2] [%] | Slope [2] | Normalized Absorption ([1]; 50% Daily Value iron) [%]
O=S(=O)([O-])[O-].[Fe+2] [(a) FeSO4, FeSO4] | 11.4 | 100 | 0.30 (c) | –
O=P([O-])([O-])[O-].[Fe+3] [B) FePO4, FePO4] | – | 33 | 0.10 (a) | –
O=S(=O)([O-])[O-].[Fe+2] [(b) FeSO4, FeSO4] | – | – | – | 6.9
